Assay results published in PubChem BioAssay AID248 (DTP/NCI, 2004).
“And” between values parts separate entries of the source, which are not always exact repeats. Equal values may be shown once. Inconclusive results and toxic doses are left out.

Test system: L1210 leukemia ip in BDF1 mice, survival T/C
Test: NCI In Vivo Anticancer Drug Screen. Data for tumor model L1210 Leukemia (intraperitoneal) in B6D2F1 (BDF1) mice
Settings: higher = longer survival
Outline: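 Antitumor effect is assessed in tumor-bearing animals. Survival in the compound arm is compared with a vehicle-dosed control arm and expressed as their quotient.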

NC(C/[N+]([O-])=N/O)C(=O)O (stereo not given)
T/C (endpoint: mean survival time, dose: 6.25 mg/kg/injection, schedule: Q01DX009 (ip), vehicle: saline): 117 % of control and 118 % of control
T/C (endpoint: mean survival time, dose: 8.0 mg/kg/injection, schedule: Q03HX016 (ip), vehicle: saline): 111 % of control
T/C (endpoint: mean survival time, dose: 8.0 mg/kg/injection, schedule: Q03HX024 (ip), vehicle: saline): 113 % of control
T/C (endpoint: mean survival time, dose: 12.5 mg/kg/injection, schedule: Q01DX009 (ip), vehicle: saline): 117 % of control and 122 % of control and 123 % of control
T/C (endpoint: mean survival time, dose: 16.0 mg/kg/injection, schedule: Q03HX008 (ip), vehicle: saline): 111 % of control
T/C (endpoint: mean survival time, dose: 16.0 mg/kg/injection, schedule: Q03HX016 (ip), vehicle: saline): 116 % of control
T/C (endpoint: mean survival time, dose: 16.0 mg/kg/injection, schedule: Q03HX024 (ip), vehicle: saline): 118 % of control
T/C (endpoint: mean survival time, dose: 20.0 mg/kg/injection, schedule: Q01DX009 (ip), vehicle: saline): 118 % of control
T/C (endpoint: mean survival time, dose: 25.0 mg/kg/injection, schedule: Q01DX001 (ip), vehicle: carboxymethylcellulose (CMC)): 112 % of control
T/C (endpoint: mean survival time, dose: 25.0 mg/kg/injection, schedule: Q01DX009 (ip), vehicle: saline): 120 % of control and 123 % of control
T/C (endpoint: mean survival time, dose: 30.0 mg/kg/injection, schedule: Q01DX009 (ip), vehicle: saline with Tween-80): 111 % of control
T/C (endpoint: mean survival time, dose: 32.0 mg/kg/injection, schedule: Q01DX009 (ip), vehicle: saline): 116 % of control
T/C (endpoint: mean survival time, dose: 32.0 mg/kg/injection, schedule: Q01DX009 (sc), vehicle: saline): 117 % of control
T/C (endpoint: mean survival time, dose: 32.0 mg/kg/injection, schedule: Q03HX008 (ip), vehicle: saline): 116 % of control
T/C (endpoint: mean survival time, dose: 32.0 mg/kg/injection, schedule: Q03HX024 (ip), vehicle: saline): 121 % of control
T/C (endpoint: mean survival time, dose: 40.0 mg/kg/injection, schedule: Q01DX009 (ip), vehicle: saline): 121 % of control
T/C (endpoint: mean survival time, dose: 44.0 mg/kg/injection, schedule: Q01DX009 (ip), vehicle: saline with Tween-80): 108 % of control
T/C (endpoint: mean survival time, dose: 50.0 mg/kg/injection, schedule: Q01DX001 (ip), vehicle: carboxymethylcellulose (CMC)): 106 % of control
T/C (endpoint: mean survival time, dose: 54.0 mg/kg/injection, schedule: Q04DX003 (ip), vehicle: saline with Tween-80): 110 % of control
T/C (endpoint: mean survival time, dose: 64.0 mg/kg/injection, schedule: Q01DX001 (oral), vehicle: saline): 107 % of control
T/C (endpoint: mean survival time, dose: 64.0 mg/kg/injection, schedule: Q01DX009 (ip), vehicle: saline): 123 % of control
T/C (endpoint: mean survival time, dose: 64.0 mg/kg/injection, schedule: Q01DX009 (oral), vehicle: saline): 92 % of control
T/C (endpoint: mean survival time, dose: 64.0 mg/kg/injection, schedule: Q01DX009 (sc), vehicle: saline): 118 % of control
T/C (endpoint: mean survival time, dose: 64.0 mg/kg/injection, schedule: Q03HX008 (ip), vehicle: saline): 116 % of control
T/C (endpoint: mean survival time, dose: 64.0 mg/kg/injection, schedule: Q03HX024 (ip), vehicle: saline): 122 % of control
T/C (endpoint: mean survival time, dose: 64.0 mg/kg/injection, schedule: Q04DX003 (ip), vehicle: saline): 117 % of control
T/C (endpoint: mean survival time, dose: 64.0 mg/kg/injection, schedule: Q08DX002 (ip), vehicle: saline): 117 % of control
T/C (endpoint: mean survival time, dose: 67.0 mg/kg/injection, schedule: Q01DX009 (ip), vehicle: saline with Tween-80): 104 % of control
T/C (endpoint: mean survival time, dose: 100.0 mg/kg/injection, schedule: Q01DX001 (ip), vehicle: carboxymethylcellulose (CMC)): 110 % of control
T/C (endpoint: mean survival time, dose: 100.0 mg/kg/injection, schedule: Q04DX003 (ip), vehicle: saline with Tween-80): 123 % of control
T/C (endpoint: mean survival time, dose: 128.0 mg/kg/injection, schedule: Q01DX001 (ip), vehicle: saline): 118 % of control
T/C (endpoint: mean survival time, dose: 128.0 mg/kg/injection, schedule: Q01DX001 (oral), vehicle: saline): 103 % of control
T/C (endpoint: mean survival time, dose: 128.0 mg/kg/injection, schedule: Q01DX001 (sc), vehicle: saline): 104 % of control
T/C (endpoint: mean survival time, dose: 128.0 mg/kg/injection, schedule: Q01DX009 (ip), vehicle: saline): 108 % of control
T/C (endpoint: mean survival time, dose: 128.0 mg/kg/injection, schedule: Q01DX009 (sc), vehicle: saline): 102 % of control
T/C (endpoint: mean survival time, dose: 128.0 mg/kg/injection, schedule: Q03HX008 (ip), vehicle: saline): 119 % of control
T/C (endpoint: mean survival time, dose: 128.0 mg/kg/injection, schedule: Q03HX016 (ip), vehicle: saline): 122 % of control
T/C (endpoint: mean survival time, dose: 128.0 mg/kg/injection, schedule: Q04DX003 (ip), vehicle: saline): 114 % of control
T/C (endpoint: mean survival time, dose: 128.0 mg/kg/injection, schedule: Q08DX002 (ip), vehicle: saline): 112 % of control
T/C (endpoint: mean survival time, dose: 150.0 mg/kg/injection, schedule: Q01DX009 (ip), vehicle: saline with Tween-80): 92 % of control
T/C (endpoint: mean survival time, dose: 160.0 mg/kg/injection, schedule: Q01DX009 (ip), vehicle: saline): 116 % of control
T/C (endpoint: mean survival time, dose: 187.0 mg/kg/injection, schedule: Q04DX003 (ip), vehicle: saline with Tween-80): 156 % of control
T/C (endpoint: mean survival time, dose: 200.0 mg/kg/injection, schedule: Q01DX001 (ip), vehicle: carboxymethylcellulose (CMC)): 124 % of control
T/C (endpoint: mean survival time, dose: 200.0 mg/kg/injection, schedule: Q01DX003 (ip), vehicle: sodium bicarbonate): 164 % of control
T/C (endpoint: mean survival time, dose: 200.0 mg/kg/injection, schedule: Q01DX009 (ip), vehicle: saline): 102 % of control
T/C (endpoint: mean survival time, dose: 256.0 mg/kg/injection, schedule: Q01DX001 (ip), vehicle: saline): 117 % of control
T/C (endpoint: mean survival time, dose: 256.0 mg/kg/injection, schedule: Q01DX001 (oral), vehicle: saline): 103 % of control
T/C (endpoint: mean survival time, dose: 256.0 mg/kg/injection, schedule: Q01DX001 (sc), vehicle: saline): 108 % of control
T/C (endpoint: mean survival time, dose: 256.0 mg/kg/injection, schedule: Q01DX009 (ip), vehicle: saline): 95 % of control
T/C (endpoint: mean survival time, dose: 256.0 mg/kg/injection, schedule: Q08DX002 (ip), vehicle: saline): 121 % of control
T/C (endpoint: mean survival time, dose: 266.0 mg/kg/injection, schedule: Q04DX003 (ip), vehicle: saline with Tween-80): 115 % of control
T/C (endpoint: mean survival time, dose: 400.0 mg/kg/injection, schedule: Q01DX003 (ip), vehicle: sodium bicarbonate): 172 % of control
T/C (endpoint: mean survival time, dose: 400.0 mg/kg/injection, schedule: Q04DX003 (ip), vehicle: Klucel (hydroxypropylcellulose) (HPC)): 151 % of control
T/C (endpoint: mean survival time, dose: 512.0 mg/kg/injection, schedule: Q01DX001 (ip), vehicle: saline): 117 % of control
T/C (endpoint: mean survival time, dose: 512.0 mg/kg/injection, schedule: Q01DX001 (oral), vehicle: saline): 97 % of control
T/C (endpoint: mean survival time, dose: 512.0 mg/kg/injection, schedule: Q01DX001 (sc), vehicle: saline): 106 % of control
T/C (endpoint: mean survival time, dose: 600.0 mg/kg/injection, schedule: Q01DX003 (ip), vehicle: sodium bicarbonate): 172 % of control
T/C (endpoint: mean survival time, dose: 600.0 mg/kg/injection, schedule: Q04DX003 (ip), vehicle: saline with Tween-80): 121 % of control
T/C (endpoint: mean survival time, dose: 600.0 mg/kg/injection, schedule: Q04DX003 (ip), vehicle: saline): 161 % of control and 159 % of control
T/C (endpoint: mean survival time, dose: 800.0 mg/kg/injection, schedule: Q01DX003 (ip), vehicle: sodium bicarbonate): 175 % of control
T/C (endpoint: mean survival time, dose: 800.0 mg/kg/injection, schedule: Q04DX003 (ip), vehicle: Klucel (hydroxypropylcellulose) (HPC)): 106 % of control
T/C (endpoint: mean survival time, dose: 800.0 mg/kg/injection, schedule: Q04DX003 (ip), vehicle: saline with Tween-80): 154 % of control
T/C (endpoint: mean survival time, dose: 1000.0 mg/kg/injection, schedule: Q01DX003 (ip), vehicle: sodium bicarbonate): 96 % of control
T/C (endpoint: mean survival time, dose: 1000.0 mg/kg/injection, schedule: Q04DX003 (ip), vehicle: saline with Tween-80): 92 % of control
T/C (endpoint: mean survival time, dose: 1024.0 mg/kg/injection, schedule: Q01DX001 (sc), vehicle: saline): 110 % of control
T/C (endpoint: mean survival time, dose: 1024.0 mg/kg/injection, schedule: Q04DX003 (ip), vehicle: saline): 150 % of control
T/C (endpoint: median survival time, dose: 8.0 mg/kg/injection, schedule: Q01DX009 (ip), vehicle: saline): 105 % of control
T/C (endpoint: median survival time, dose: 8.0 mg/kg/injection, schedule: Q01DX009 (oral), vehicle: saline): 100 % of control
T/C (endpoint: median survival time, dose: 8.0 mg/kg/injection, schedule: Q01DX009 (sc), vehicle: saline): 105 % of control
T/C (endpoint: median survival time, dose: 16.0 mg/kg/injection, schedule: Q01DX009 (oral), vehicle: saline): 100 % of control
T/C (endpoint: median survival time, dose: 16.0 mg/kg/injection, schedule: Q01DX009 (sc), vehicle: saline): 100 % of control and 105 % of control
T/C (endpoint: median survival time, dose: 32.0 mg/kg/injection, schedule: Q01DX009 (oral), vehicle: saline): 111 % of control
T/C (endpoint: median survival time, dose: 32.0 mg/kg/injection, schedule: Q01DX009 (sc), vehicle: saline): 111 % of control
T/C (endpoint: median survival time, dose: 64.0 mg/kg/injection, schedule: Q01DX009 (ip), vehicle: saline): 100 % of control and 111 % of control
T/C (endpoint: median survival time, dose: 64.0 mg/kg/injection, schedule: Q04DX003 (ip), vehicle: saline): 105 % of control
T/C (endpoint: median survival time, dose: 64.0 mg/kg/injection, schedule: Q04DX003 (oral), vehicle: saline): 100 % of control
T/C (endpoint: median survival time, dose: 100.0 mg/kg/injection, schedule: Q04DX003 (ip), vehicle: saline): 116 % of control and 100 % of control
T/C (endpoint: median survival time, dose: 128.0 mg/kg/injection, schedule: Q01DX009 (ip), vehicle: saline): 100 % of control
T/C (endpoint: median survival time, dose: 128.0 mg/kg/injection, schedule: Q01DX009 (sc), vehicle: saline): 105 % of control
T/C (endpoint: median survival time, dose: 128.0 mg/kg/injection, schedule: Q04DX003 (oral), vehicle: saline): 100 % of control
T/C (endpoint: median survival time, dose: 200.0 mg/kg/injection, schedule: Q04DX003 (ip), vehicle: saline): 111 % of control
T/C (endpoint: median survival time, dose: 400.0 mg/kg/injection, schedule: Q04DX003 (ip), vehicle: saline): 116 % of control
T/C (endpoint: median survival time, dose: 1000.0 mg/kg/injection, schedule: Q04DX003 (ip), vehicle: saline): 155 % of control
T/C (endpoint: median survival time, dose: 1024.0 mg/kg/injection, schedule: Q04DX003 (ip), vehicle: saline): 111 % of control
T/C (endpoint: median survival time, dose: 1024.0 mg/kg/injection, schedule: Q04DX003 (sc), vehicle: saline): 94 % of control
